{"source": "paper PMC7834886", "about": "(Life Sciences, 2020)", "key": {"[1]": {"tested_on": "ACE2^hi cells (ACE2 high-expressing HEK293T cells)", "assay": "Cytotoxicity assay", "type": "cell-based", "details": "for effect on activity (survival) of ACE2^hi cells: at concentrations below 100 μM; for cytotoxicity to cells: at 20 μM"}, "[2]": {"details": "preclinical and clinical studies; cited from earlier work"}, "ACE2": {"target": "ACE2 (Homo sapiens, UniProt Q9BYF1)", "sequence (Q9BYF1 18-805)": "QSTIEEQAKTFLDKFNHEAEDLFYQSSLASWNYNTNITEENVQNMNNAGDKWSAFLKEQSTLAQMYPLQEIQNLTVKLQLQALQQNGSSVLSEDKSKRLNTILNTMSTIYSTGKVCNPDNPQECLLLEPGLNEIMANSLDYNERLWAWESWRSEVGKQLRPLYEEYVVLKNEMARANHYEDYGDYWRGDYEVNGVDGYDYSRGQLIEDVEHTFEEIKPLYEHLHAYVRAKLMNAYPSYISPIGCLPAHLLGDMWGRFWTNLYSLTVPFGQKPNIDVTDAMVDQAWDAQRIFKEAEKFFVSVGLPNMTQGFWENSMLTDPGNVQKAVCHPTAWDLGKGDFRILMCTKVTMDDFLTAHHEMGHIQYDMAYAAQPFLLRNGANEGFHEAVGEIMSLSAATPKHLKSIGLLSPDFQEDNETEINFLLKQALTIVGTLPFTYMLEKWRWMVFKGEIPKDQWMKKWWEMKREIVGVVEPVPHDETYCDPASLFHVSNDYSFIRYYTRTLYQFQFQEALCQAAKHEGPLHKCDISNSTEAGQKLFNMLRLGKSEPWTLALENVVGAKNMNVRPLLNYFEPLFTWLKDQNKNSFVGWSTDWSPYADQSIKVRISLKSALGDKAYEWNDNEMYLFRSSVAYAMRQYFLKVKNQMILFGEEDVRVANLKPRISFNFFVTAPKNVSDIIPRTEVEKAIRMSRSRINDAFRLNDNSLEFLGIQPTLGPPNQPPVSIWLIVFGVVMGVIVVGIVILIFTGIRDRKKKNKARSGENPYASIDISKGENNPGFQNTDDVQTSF", "type": "binding", "details": "mobile phase 10 mM Na2HPO4 / phosphate-buffer saline pH 7.4; flow rate 0.2 mL/min; 37 °C; UV 254 nm"}}, "data": [{"smiles": "O=C1CCc2ccc(OCCCCN3CCN(c4cccc(Cl)c4Cl)CC3)cc2N1", "note": "[Ari, aripiprazole]", "values": [{"measurement": "effect on activity (survival) of ACE2^hi cells", "setting": "[1]; CCK-8, 24 h", "result": "no significant effect"}, {"measurement": "cytotoxicity to cells", "setting": "[1]", "result": "no cytotoxicity"}]}, {"smiles": "CN(C)CCCN1c2ccccc2Sc2ccc(Cl)cc21", "note": "[Chl, Chlorpromazine]", "values": [{"measurement": "cytotoxicity to cells", "setting": "[1]", "result": "no cytotoxicity"}, {"measurement": "concentration in the lungs relative to plasma", "setting": "[2]", "result": "20–200 times higher than in plasma"}]}, {"smiles": "OCCOCCN1CCN(C2=Nc3ccccc3Sc3ccccc32)CC1", "note": "[Que, quetiapine]", "values": [{"measurement": "difference in cell viability versus control group", "setting": "[1]; CCK-8, 24 h, at concentrations below 50 μM", "result": "no significant difference"}, {"measurement": "cytotoxicity to cells", "setting": "[1]", "result": "no cytotoxicity"}]}, {"smiles": "CSc1ccc2c(c1)N(CCC1CCCCN1C)c1ccccc1S2", "note": "(stereo not drawn) [Thi, thioridazine]", "values": [{"measurement": "cytotoxicity to cells", "setting": "[1]", "result": "no cytotoxicity"}, {"measurement": "retention time (tR) on ACE2-CMC column", "setting": "ACE2", "result": 51.604, "unit": "min"}]}, {"smiles": "CCN(CC)CCNC(=O)c1cc(S(C)(=O)=O)ccc1OC", "note": "[Tia, tiapride]", "values": [{"measurement": "effect on activity (survival) of ACE2^hi cells", "setting": "[1]; CCK-8, 24 h", "result": "no significant effect"}, {"measurement": "cytotoxicity to cells", "setting": "[1]", "result": "no cytotoxicity"}, {"measurement": "retention time (tR) on ACE2-CMC column", "setting": "ACE2", "result": 7.789, "unit": "min"}]}, {"smiles": "CN1CCN(CCCN2c3ccccc3Sc3ccc(C(F)(F)F)cc32)CC1", "note": "[Tri, Trifluoperazine]", "values": [{"measurement": "cytotoxicity to cells", "setting": "[1]", "result": "no cytotoxicity"}]}]}
